From the Deep4Chem optical property database
Values belong to the compound of their own block, whether it stands above or below them.

Experiment: solvent given as SMILES

SMILES: CC(C)(C)c1ccc2oc(-c3ccc(-c4nc5cc(C(C)(C)C)ccc5o4)s3)nc2c1
- emission maximum (in C1CCCCC1): 426 nm
- emission maximum (in C1CCOC1): 432 nm
- emission maximum (in CC1CCCCC1): 426 nm
- emission maximum (in CC#N): 432 nm
- emission maximum (in CCCCO): 434 nm
- emission maximum (in CCO): 434 nm
- emission maximum (in CN(C)C=O): 434 nm
- emission maximum (in Cc1ccccc1): 434 nm
- emission maximum (in Clc1ccccc1Cl): 437 nm
- emission maximum (in c1ccccc1): 434 nm

SMILES: CCCCCOc1ccc2c(c1)c1ccc3cccc4c5cc(OC)cc6oc(=O)c2c(c65)c1c34
- emission maximum (in C1CCOC1): 454 nm

SMILES: CCCN1C(=O)C(=CC=CC=C2Oc3ccccc3N2CCCS(=O)(=O)[O-])C(=O)N(CCC)C1=S
- emission maximum (in C1COCCO1): 584 nm
- emission maximum (in CC(C)=O): 580 nm
- emission maximum (in CCCCO): 583 nm
- emission maximum (in CCCO): 581 nm
- emission maximum (in CCO): 579 nm
- emission maximum (in CO): 577 nm
- emission maximum (in ClC(Cl)Cl): 589 nm
- emission maximum (in O): 573 nm

SMILES: Cc1cc(-c2nc(-c3ccccc3)nc(-c3ccccc3)n2)ccc1N1c2ccccc2C2(c3ccccc3-c3ccccc32)c2ccccc21
- emission maximum (in Cc1ccccc1): 481 nm

SMILES: Cc1cc(C)c(N(c2ccccc2)c2ccc(S(=O)(=O)c3ccc(S(=O)(=O)c4ccc(N(c5ccccc5)c5c(C)cc(C)cc5C)cc4)cc3)cc2)c(C)c1
- emission maximum (in Cc1ccccc1): 450 nm
- emission maximum (in c1cc(-n2c3ccccc3c3ccccc32)nc(-n2c3ccccc3c3ccccc32)c1): 452.12 nm

SMILES: C/C=C/c1cc(OC)cc(OC)c1
- emission maximum (in CC#N): 343 nm
- emission maximum (in CCCCCC): 338 nm

SMILES: CCCCCCCCN1c2ccc(C#Cc3cc(C(F)(F)F)cc(C(F)(F)F)c3)cc2Sc2cc(C=O)ccc21
- emission maximum (in C1CCOC1): 514 nm
- emission maximum (in CC#N): 532 nm
- emission maximum (in CCCCCC): 491 nm
- emission maximum (in CO): 517 nm
- emission maximum (in CS(C)=O): 540 nm
- emission maximum (in Cc1ccccc1): 508 nm
- emission maximum (in ClC(Cl)Cl): 529 nm

SMILES: CCCCCCCCCCCCOc1cc(C(=O)Nc2ccc(-c3ccc4c(c3)C(=O)c3cc(-c5ccc(NC(=O)c6cc(OCCCCCCCCCCCC)c(OCCCCCCCCCCCC)c(OCCCCCCCCCCCC)c6)cc5)ccc3-4)cc2)cc(OCCCCCCCCCCCC)c1OCCCCCCCCCCCC
- emission maximum (in C1CCOC1): 542 nm

SMILES: CCn1c2ccccc2c2cc(C#Cc3cc(C#Cc4ccc5c(c4)c4ccccc4n5CC)nc(N4CCCCC4)n3)ccc21
- emission maximum (in C1CCOC1): 445 nm
- emission maximum (in CCOC(C)=O): 446 nm
- emission maximum (in CN(C)C=O): 469 nm
- emission maximum (in Cc1ccccc1): 438 nm
- emission maximum (in ClCCl): 450 nm

SMILES: CC(C)(C)c1ccc(C#Cc2c(C#Cc3ccc(C(C)(C)C)cc3)c3cccc4c(C#Cc5ccc(C(C)(C)C)cc5)c(C#Cc5ccc(C(C)(C)C)cc5)c5cccc2c5c34)cc1
- emission maximum (in ClCCl): 443 nm

SMILES: CCC1=[N+]2c3c(c4ccc(Oc5c(C)cc(C)cc5C)c5cc6c(Oc7c(C)cc(C)cc7C)ccc7c8cc(CC)n(c8c3c(c54)c67)[B-]2(F)F)=C1
- emission maximum (in Cc1ccccc1): 924 nm

SMILES: F[B-]1(F)n2c(c3cccc4cccc2c43)=Nc2sc3ccccc3[n+]21
- emission maximum (in C1CCOC1): 501 nm
- emission maximum (in CC#N): 500 nm
- emission maximum (in CCCCCC): 493 nm
- emission maximum (in Cc1ccccc1): 504 nm
- emission maximum (in ClCCl): 529 nm

SMILES: COc1ccc(/C=C/C(F)(F)F)c(N)c1
- emission maximum (in C1CCOC1): 410 nm

SMILES: Fc1ccc(N(c2ccc(F)cc2)c2ccc3c4cccc5c(N(c6ccc(F)cc6)c6ccc(F)cc6)ccc(c6cccc2c63)c54)cc1
- emission maximum (in C1CCCCC1): 529 nm
- emission maximum (in C1CCOC1): 544 nm
- emission maximum (in CC#N): 548 nm
- emission maximum (in Cc1ccccc1): 540 nm
- emission maximum (in ClCCl): 546 nm

SMILES: CC1=C(C(C)(C)C)C(C)=[N+]2C1=C(C)c1c(C)c(C(C)(C)C)c(C)n1[B-]2(F)F
- emission maximum (in C1CCCCC1): 571.2 nm
- emission maximum (in C1CCOC1): 566.6 nm
- emission maximum (in C1COCCO1): 565.4 nm
- emission maximum (in CC#N): 560.6 nm
- emission maximum (in CC(C)=O): 563.6 nm
- emission maximum (in CC(C)CC(C)(C)C): 569 nm
- emission maximum (in CCC(C)C): 569 nm
- emission maximum (in CCCC(C)=O): 562.6 nm
- emission maximum (in CCCCCC): 567.8 nm
- emission maximum (in CCCCCCCCO): 565 nm
- emission maximum (in CCCCCCO): 565.4 nm
- emission maximum (in CCCCO): 566.6 nm
- emission maximum (in CCCCOC(C)=O): 564.6 nm
- emission maximum (in CCCO): 564.6 nm
- emission maximum (in CCO): 563.2 nm
- emission maximum (in CCOC(C)=O): 562.4 nm
- emission maximum (in CCOCC): 565.4 nm
- emission maximum (in CN(C)C=O): 565.4 nm
- emission maximum (in CNC=O): 560.6 nm
- emission maximum (in CO): 561.2 nm
- emission maximum (in COC(C)=O): 561.8 nm
- emission maximum (in OCC(F)(F)F): 561.2 nm

SMILES: N#Cc1c(N2CCCCC2)cc(-c2ccc(O)cc2)c2c1-c1cccc3cccc-2c13
- emission maximum (in C1CCCCC1): 527 nm
- emission maximum (in C1COCCO1): 540 nm
- emission maximum (in CC#N): 569 nm
- emission maximum (in CCO): 548 nm
- emission maximum (in CN(C)C=O): 573 nm
- emission maximum (in CO): 554 nm
- emission maximum (in CS(C)=O): 580 nm
- emission maximum (in Cc1ccccc1): 530 nm
- emission maximum (in ClCCl): 545 nm
- emission maximum (in O): 550 nm

SMILES: C(=C\c1nc(/C=C/c2ccc(-n3c4ccccc4c4ccccc43)cc2)nc(/C=C/c2ccc(-n3c4ccccc4c4ccccc43)cc2)n1)/c1ccc(-n2c3ccccc3c3ccccc32)cc1
- emission maximum (in C1CCOC1): 500 nm
- emission maximum (in CC#N): 574 nm
- emission maximum (in Cc1ccccc1): 453 nm
- emission maximum (in ClCCl): 526 nm

SMILES: CC(C)(C)c1ccc2c(c1)c1cc(C(C)(C)C)ccc1n2-c1ccccc1-c1nccnc1C#N
- emission maximum (in Cc1ccccc1): 490 nm
- emission maximum (in c1cc(-n2c3ccccc3c3ccccc32)cc(-n2c3ccccc3c3ccccc32)c1): 483 nm

SMILES: N#Cc1c(N2CCCC2)cc(-c2ccccc2)c2c1-c1ccccc1C2
- emission maximum (in C1CCOC1): 446 nm

SMILES: CC1(C)c2ccccc2N(c2ccc3c(c2)c2cc(N4c5ccccc5C(C)(C)c5ccccc54)ccc2c2nc(C#N)c(C#N)nc32)c2ccccc21
- emission maximum (in C1COCCO1): 753.65 nm
- emission maximum (in CCCCCC): 572.45 nm
- emission maximum (in Cc1ccccc1): 678 nm
- emission maximum (in O=P(c1ccccc1)(c1ccccc1)c1cccc(-c2cc(-n3c4ccccc4c4ccccc43)cc(-n3c4ccccc4c4ccccc43)c2)n1): 618 nm

SMILES: Cc1ccc2c(c1)C(c1ccccc1)(c1ccccc1)c1cc(C)ccc1N2c1ccc2c(c1)N(c1ccccc1)c1ccccc1B2c1c(C(C)C)cc(C(C)C)cc1C(C)C
- emission maximum (in Cc1ccccc1): 449 nm
- emission maximum (in O=P(c1ccccc1)(c1ccccc1)c1ccc2oc3ccc(P(=O)(c4ccccc4)c4ccccc4)cc3c2c1): 465 nm

SMILES: CN(C)c1ccc(C#Cc2cc(C#Cc3ccc(N(C)C)cc3)c3ccc4c(C#Cc5ccc(C(F)(F)F)cc5)cc(C#Cc5ccc(N(C)C)cc5)c5ccc2c3c54)cc1
- emission maximum (in ClCCl): 576 nm

SMILES: CCCCn1c2ccc(C#N)cc2c2cc(C#N)cc(-c3ccc(N(c4ccccc4)c4ccccc4)cc3)c21
- emission maximum (in C1CCCCC1): 407 nm
- emission maximum (in C1CCOC1): 440 nm
- emission maximum (in CC#N): 474 nm
- emission maximum (in CCCCOCCCC): 412 nm
- emission maximum (in CCN(CC)CC): 410.48 nm
- emission maximum (in CCOC(C)=O): 438 nm
- emission maximum (in CCOCC): 424 nm
- emission maximum (in CN(C)C=O): 472 nm
- emission maximum (in Cc1ccccc1): 415 nm
- emission maximum (in ClC=C(Cl)Cl): 420 nm
- emission maximum (in ClCCl): 447 nm

SMILES: C[n+]1ccc(/C=C/c2ccc(N(c3ccccc3)c3ccc(/C=C/c4cc[n+](C)cc4)cc3)cc2)cc1
- emission maximum (in ClCCl): 502 nm
- emission maximum (in O): 656 nm
- emission maximum (in OCC(O)CO): 649 nm

SMILES: CC(=C(C#Cc1ccccc1)C#Cc1ccccc1)c1ccc(C(C)=C(C#Cc2ccccc2)C#Cc2ccccc2)cc1
- emission maximum (in ClC(Cl)Cl): 454 nm

SMILES: COc1cnc(-c2cc[n+](C3=C(F)C(F)(F)C(F)(F)[C-]3F)cc2)s1
- emission maximum (in CC#N): 474 nm
- emission maximum (in CC(C)=O): 474 nm
- emission maximum (in CCO): 474 nm
- emission maximum (in CN(C)C=O): 485 nm
- emission maximum (in CO): 472 nm
- emission maximum (in CS(C)=O): 490 nm
- emission maximum (in ClC(Cl)Cl): 462 nm
- emission maximum (in ClCCl): 466 nm

SMILES: CN(C)c1ccc(/C=C/c2cc[n+](CCCCCCCCCCCC[n+]3ccc(/C=C/c4ccc(N(C)C)cc4)cc3)cc2)cc1
- emission maximum (in CC1COC(=O)O1): 602 nm
- emission maximum (in CC#N): 602 nm
- emission maximum (in CC(C)=O): 602 nm
- emission maximum (in CC(C)O): 590 nm
- emission maximum (in CCO): 593 nm
- emission maximum (in CN(C)C=O): 602 nm
- emission maximum (in CO): 597 nm
- emission maximum (in CS(C)=O): 607 nm
- emission maximum (in ClC(Cl)Cl): 580 nm
- emission maximum (in O): 597 nm
- emission maximum (in c1ccncc1): 598 nm

SMILES: Cc1cc(C)c(B(c2cc(C#Cc3ccccc3)sc2-c2sc(C#Cc3ccccc3)cc2P(=O)(c2ccccc2)c2ccccc2)c2c(C)cc(C)cc2C)c(C)c1
- emission maximum (in CO): 560 nm

SMILES: CCCCCCn1c2cc(/C=C(\C#N)c3cccs3)ccc2c2ccc(/C=C(\C#N)c3cccs3)cc21
- emission maximum (in ClC(Cl)Cl): 469.48 nm

Results, then the compound that gave them:

- emission maximum (in ClCCl): 401 nm
SMILES: COC(=O)c1c(-c2cc3ccccc3oc2=O)nn(-c2cccc(C)c2)c1C(=O)OC

- emission maximum (in C1CCCCC1): 477 nm
- emission maximum (in CC#N): 479 nm
- emission maximum (in CO): 475 nm
- emission maximum (in ClCCl): 479 nm
- emission maximum (in O): 481 nm
SMILES: COc1ccccc1-c1nc(-c2ccccc2)c2ccccn12

- emission maximum (in ClCCl): 452 nm
SMILES: Cc1nc(-c2ccccc2O)n2c1CCCC2

- emission maximum (in ClCCl): 464 nm
SMILES: Cc1nc(-c2cc(F)ccc2O)n2c1CCCC2

- emission maximum (in ClC(Cl)Cl): 409 nm
SMILES: CC(C)(C)c1ccc2oc3nc4oc5ccc(-n6c7ccccc7c(=O)c7ccccc76)cc5c4cc3c2c1

- emission maximum (in ClCCl): 373 nm
SMILES: C[Si]1(C)c2ccc(-c3cccs3)cc2C=Cc2cc(-c3cccs3)ccc21

- emission maximum (in ClCCl): 472 nm
SMILES: CC(C)c1cccc(C(C)C)c1N1C(c2ccccc2)=Cc2ccc3ccccc3[n+]2[B-]1(F)F

- emission maximum (in ClCCl): 363 nm
SMILES: COc1ccc2c(c1)cc(C)c1c3ccccc3[nH]c21

- emission maximum (in CC1CCCCC1): 488 nm
- emission maximum (in CC#N): 494 nm
SMILES: C(=C\c1c2ccccc2cc2ccccc12)/c1cnc2ccccc2c1

- emission maximum (in CCO): 459 nm
SMILES: Cc1c(COC(=O)c2ccccc2Cl)n2c(OCC(=O)c3ccccc3Cl)c(C)c(=O)n2c1=O

- emission maximum (in ClCCl): 512 nm
SMILES: CC(C)(C)c1ccc(-c2ccc(-c3ccc(C(C)(C)C)cc3)c3nsnc23)cc1

- emission maximum (in CC#N): 409 nm
- emission maximum (in CCCCCC): 337 nm
SMILES: Cc1ccc(-n2c(C)ccc2C)cc1
